Assay results published in ChEMBL document CHEMBL1158746, “Structures and aldose reductase inhibitory effects of bromophenols from the red alga Symphyocladia latiuscula” (J Nat Prod, 2005).

Each compound was assayed against Aldo-keto reductase family 1 member B1 (Homo sapiens, UniProt P15121) (assay: Inhibition of human muscle recombinant aldose reductase by spectrophotometry).
Parameters: species or system Muscle tissue

Structure (SMILES)	IC50
O=Cc1c(Br)c(O)c(O)c(Br)c1Br	667 nM
Cc1c(Br)c(O)c(O)c(Br)c1Br	3190 nM

Continued, values first:

IC50	Structure (SMILES)
638 nM	Oc1c(Br)cc(Cc2c(Br)c(O)c(O)c(Br)c2Br)c(Br)c1O
567 nM	Oc1c(O)c(Br)c(Cc2c(Br)c(O)c(O)c(Br)c2Br)c(Br)c1Br
167 nM	Oc1cc(Br)c(COCc2c(Br)c(O)c(O)c(Br)c2Br)c(Br)c1O
